Inconclusive results and toxic doses are left out. Rule as the data show it: active = T/C of 150% or more; inactive = T/C below 125%.
System: L1210 leukemia ip in BDF1 mice, survival T/C
Assay: NCI In Vivo Anticancer Drug Screen. Data for tumor model L1210 Leukemia (intraperitoneal) in B6D2F1 (BDF1) mice
Details: endpoint: mean survival time, higher = longer survival
How it was run: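 Tumor cells were implanted, animals were treated, and survival was followed. The result divides the treated measurement by the vehicle-control measurement.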

[1] = dose: 100.0 mg/kg/injection, schedule: Q04DX002 (ip), vehicle: Klucel (hydroxypropylcellulose) (HPC)
[2] = dose: 200.0 mg/kg/injection, schedule: Q04DX002 (ip), vehicle: Klucel (hydroxypropylcellulose) (HPC)
[3] = dose: 400.0 mg/kg/injection, schedule: Q04DX002 (ip), vehicle: Klucel (hydroxypropylcellulose) (HPC)
[4] = dose: 100.0 mg/kg/injection, schedule: Q01DX001 (ip), vehicle: saline
[5] = dose: 200.0 mg/kg/injection, schedule: Q01DX001 (ip), vehicle: saline
[6] = dose: 400.0 mg/kg/injection, schedule: Q01DX001 (ip), vehicle: saline
[7] = dose: 100.0 mg/kg/injection, schedule: Q04DX002 (ip), vehicle: saline
[8] = dose: 100.0 mg/kg/injection, schedule: Q04DX003 (ip), vehicle: saline with Tween-80
[9] = dose: 200.0 mg/kg/injection, schedule: Q04DX003 (ip), vehicle: saline with Tween-80
[10] = dose: 400.0 mg/kg/injection, schedule: Q04DX003 (ip), vehicle: saline with Tween-80
[11] = dose: 400.0 mg/kg/injection, schedule: Q01DX001 (ip), vehicle: carboxymethylcellulose (CMC)
[12] = dose: 100.0 mg/kg/injection, schedule: Q01DX009 (ip), vehicle: Klucel (hydroxypropylcellulose) (HPC)
[13] = dose: 200.0 mg/kg/injection, schedule: Q01DX009 (ip), vehicle: Klucel (hydroxypropylcellulose) (HPC)
[14] = dose: 400.0 mg/kg/injection, schedule: Q01DX009 (ip), vehicle: Klucel (hydroxypropylcellulose) (HPC)
[15] = dose: 50.0 mg/kg/injection, schedule: Q01DX001 (ip), vehicle: saline
[16] = dose: 100.0 mg/kg/injection, schedule: Q04DX003 (ip), vehicle: Klucel (hydroxypropylcellulose) (HPC)
[17] = dose: 200.0 mg/kg/injection, schedule: Q04DX003 (ip), vehicle: Klucel (hydroxypropylcellulose) (HPC)
[18] = dose: 400.0 mg/kg/injection, schedule: Q04DX003 (ip), vehicle: Klucel (hydroxypropylcellulose) (HPC)

Measured: T/C

CCCCN(C(=O)C(F)(F)F)C(C)(C)C(SSSC(c1cccs1)C(C)(C)N(CCCC)C(=O)C(F)(F)F)c1cccs1 (configuration not stated)
inactive: dose: 100.0 mg/kg/injection, schedule: Q01DX009 (ip), vehicle: saline sonified 94 % of control | dose: 100.0 mg/kg/injection, schedule: Q04DX003 (ip), vehicle: saline sonified 90 % of control | dose: 200.0 mg/kg/injection, schedule: Q01DX009 (ip), vehicle: saline sonified 96 % of control | dose: 200.0 mg/kg/injection, schedule: Q04DX003 (ip), vehicle: saline sonified 93 % of control | dose: 400.0 mg/kg/injection, schedule: Q04DX003 (ip), vehicle: saline sonified 90 % of control

CC(=O)Cc1cc(C)nc(/N=C(\N)N2CCCCC2)n1
inactive: [1] 92 % of control | [2] 103 % of control | [3] 96 % of control

COc1ccc(-c2sc(C)c(-c3ccc(OC)cc3)c2C)cc1
inactive: [4] 96 % of control | [5] 96 % of control | [6] 94 % of control

CN=C1N[N+]2=CCCCC2S1 (configuration not stated)
inactive: dose: 25.0 mg/kg/injection, schedule: Q04DX002 (ip), vehicle: saline 86 % of control | dose: 40.0 mg/kg/injection, schedule: Q01DX009 (ip), vehicle: saline 95 % of control | dose: 50.0 mg/kg/injection, schedule: Q04DX002 (ip), vehicle: saline 111 % of control | dose: 60.0 mg/kg/injection, schedule: Q01DX009 (ip), vehicle: saline 104 % of control | dose: 80.0 mg/kg/injection, schedule: Q01DX009 (ip), vehicle: saline 107 % of control | [7] 99 % of control

CCOc1ccc(C(=O)O)cc1OCC
inactive: [8] 110 % of control | [9] 98 % of control | [10] 96 % of control

C=C(C)C(=NC)Nc1ccc(Cl)c(Cl)c1
inactive: dose: 222.0 mg/kg/injection, schedule: Q01DX Z (ip), vehicle: methylcellulose (MC) 98 % of control | dose: 333.0 mg/kg/injection, schedule: Q01DX Z (ip), vehicle: methylcellulose (MC) 91 % of control | dose: 500.0 mg/kg/injection, schedule: Q01DX Z (ip), vehicle: methylcellulose (MC) 93 % of control

CCOC(=O)NCC(CCN(C)CC)(c1cccc2ccccc12)C(C)C (configuration not stated)
inactive: dose: 12.5 mg/kg/injection, schedule: Q01DX009 (ip), vehicle: saline with Tween-80 93 % of control | dose: 12.5 mg/kg/injection, schedule: Q04DX003 (ip), vehicle: saline with Tween-80 93 % of control | dose: 25.0 mg/kg/injection, schedule: Q01DX009 (ip), vehicle: saline with Tween-80 98 % of control | dose: 25.0 mg/kg/injection, schedule: Q04DX003 (ip), vehicle: saline with Tween-80 98 % of control | dose: 50.0 mg/kg/injection, schedule: Q04DX003 (ip), vehicle: saline with Tween-80 93 % of control

c1ccc(-c2cc[c]([Sn]([c]3ccccc3)([c]3ccccc3)[c]3ccccc3)cc2)cc1
inactive: dose: 100.0 mg/kg/injection, schedule: Q04DX002 (ip), vehicle: other 103 % of control | dose: 200.0 mg/kg/injection, schedule: Q04DX002 (ip), vehicle: other 107 % of control | dose: 400.0 mg/kg/injection, schedule: Q04DX002 (ip), vehicle: other 96 % of control

CCCNC(=O)NC1CCCCC1
inactive: dose: 264.0 mg/kg/injection, schedule: Q01DX001 (ip), vehicle: carboxymethylcellulose (CMC) 101 % of control | [11] 90 % of control | dose: 600.0 mg/kg/injection, schedule: Q01DX001 (ip), vehicle: carboxymethylcellulose (CMC) 98 % of control

Nc1cccc[n+]1CC1(c2ccccc2)OCCO1
inactive: dose: 50.0 mg/kg/injection, schedule: Q01DX001 (ip), vehicle: Klucel (hydroxypropylcellulose) (HPC) 110 % of control | dose: 100.0 mg/kg/injection, schedule: Q01DX001 (ip), vehicle: Klucel (hydroxypropylcellulose) (HPC) 106 % of control

COc1ccc(Nc2cc(N)nc(N)n2)c(=S)[nH]1
inactive: dose: 100.0 mg/kg/injection, schedule: Q04DX003 (ip), vehicle: saline 97 % of control | dose: 200.0 mg/kg/injection, schedule: Q04DX003 (ip), vehicle: saline 97 % of control | dose: 400.0 mg/kg/injection, schedule: Q04DX003 (ip), vehicle: saline 93 % of control

CC(=O)NC1CCCCCCC1
inactive: dose: 100.0 mg/kg/injection, schedule: Q01DX005 (ip), vehicle: saline 103 % of control | dose: 100.0 mg/kg/injection, schedule: Q01DX009 (ip), vehicle: saline 108 % of control | [7] 100 % of control | dose: 200.0 mg/kg/injection, schedule: Q01DX005 (ip), vehicle: saline 109 % of control | dose: 200.0 mg/kg/injection, schedule: Q01DX009 (ip), vehicle: saline 102 % of control | dose: 200.0 mg/kg/injection, schedule: Q04DX002 (ip), vehicle: saline 110 % of control | dose: 400.0 mg/kg/injection, schedule: Q01DX005 (ip), vehicle: saline 109 % of control | dose: 400.0 mg/kg/injection, schedule: Q01DX009 (ip), vehicle: saline 115 % of control | dose: 400.0 mg/kg/injection, schedule: Q04DX002 (ip), vehicle: saline 100 % of control

COC(=O)c1ccc[n+](CC(=O)c2ccccc2)c1
inactive: [8] 95 % of control | [9] 88 % of control

CCCN(CCC)CCNCC(Cc1ccccc1)c1ccccc1 (configuration not stated)
inactive: dose: 50.0 mg/kg/injection, schedule: Q04DX002 (ip), vehicle: Klucel (hydroxypropylcellulose) (HPC) 99 % of control | [1] 99 % of control

CCCCOC(=O)c1ccc(NC(=O)Nc2ccc(F)c([N+](=O)[O-])c2)cc1
inactive: [12] 98 % of control | [13] 95 % of control | [14] 101 % of control

COCC1CCCCC1O (configuration not stated)
inactive: [15] 101 % of control | [4] 95 % of control | [5] 101 % of control | [6] 98 % of control

O=C(Cc1ccccc1)c1ccc2c3c(ccc([N+](=O)[O-])c13)CC2
inactive: dose: 100.0 mg/kg/injection, schedule: Q04DX003 (ip), vehicle: acetone 101 % of control | dose: 200.0 mg/kg/injection, schedule: Q04DX003 (ip), vehicle: acetone 105 % of control | dose: 400.0 mg/kg/injection, schedule: Q04DX003 (ip), vehicle: acetone 105 % of control

COc1ccccc1CN1CCCN(Cc2ccccc2OC)C1c1ccc(N(CCCl)CCCl)cc1Cl
inactive: dose: 50.0 mg/kg/injection, schedule: Q01DX001 (ip), vehicle: carboxymethylcellulose (CMC) 95 % of control | dose: 100.0 mg/kg/injection, schedule: Q01DX001 (ip), vehicle: carboxymethylcellulose (CMC) 101 % of control | dose: 200.0 mg/kg/injection, schedule: Q01DX001 (ip), vehicle: carboxymethylcellulose (CMC) 98 % of control | [11] 95 % of control

CCOC(=O)CC(=O)c1cccc(S(=O)(=O)F)c1
inactive: dose: 100.0 mg/kg/injection, schedule: Q01DX009 (ip), vehicle: saline with Tween-80 98 % of control | [8] 104 % of control | dose: 200.0 mg/kg/injection, schedule: Q01DX009 (ip), vehicle: saline with Tween-80 103 % of control | [9] 98 % of control | dose: 400.0 mg/kg/injection, schedule: Q01DX009 (ip), vehicle: saline with Tween-80 92 % of control | [10] 102 % of control

[I][Ga]([I])[I]
inactive: [4] 101 % of control | [5] 108 % of control | [6] 111 % of control

Cn1cccc1/C=C/[N+](=O)[O-]
inactive: [15] 104 % of control | [4] 91 % of control

Fc1ccccc1NC1=NCCO1
inactive: [16] 101 % of control | [17] 95 % of control | [18] 92 % of control

CCCCCCCCCCCCCCCC(N)=O
inactive: [12] 93 % of control | [16] 90 % of control | [13] 102 % of control | [17] 87 % of control | [14] 94 % of control | [18] 98 % of control

CCSCCC(C)(N)C(=O)O (configuration not stated)
inactive: [1] 97 % of control | [2] 93 % of control | [3] 89 % of control

COc1cc(Oc2c(OC)cc(N)cc2OC)cc(OC)c1OC
inactive: [8] 97 % of control | [9] 95 % of control | [10] 95 % of control
